According to patent US7186754B2, “Use of creatine or creatine compounds for skin preservation” (Avicena Group, Inc., priority 1999, dated 2007):

Legend:
[1] = test system: striatal tissue after malonate injections; assay: salicylate hydroxyl radical trapping and 3-nitrotyrosine in striatum after intrastriatal malonate injection; type: in vivo; details: 1% in diet for two weeks before intrastriatal malonate, FIG. 3
Description: FIG. 3 depicts the production of 2,3 and 2,5 DHBA and 3 nitrotyrosine after intrastriatal injection of malonate in control animals fed with creatine and those fed with cyclocreatine. **p is less than 0.01 compared with uninjected side; #p is less than 0.05 compared with DHBA elevation in controls. Eight animals were used in each group.
The salicylate hydroxyl radical-trapping method was used for measuring levels of hydroxyl radicals in striatal tissue after malonate injections. Eight animals in each group were fed either a normal diet or a diet enriched with 1% creatine or 1% cyclocreatine for two weeks before intrastriatal malonate injections. Animals were injected with 200 mg/kg salicylate intraperitoneally just before the malonate injections and were killed 1 hour later. […] An aliquot of supernatant was analyzed by HPLC with the 16-electrode electrochemical detection (Beal et. al., 1990). Salicylate, 2,3 and 2,5 DHBA, tyrosine, 3-nitrotyrosine were measured electrochemically by oxidation at 840, 240, 120, 600 and 840 mV respectively with retention times of 20.5, 9.4, 6.3, 10.5, 18.2 min respectively. The data were expressed as the ratio of 2,3 and 2,5 DHBA to salicylate to normalize the DHBA concentrations for differing brain concentrations of salicylate. […] 3-Nitrotyrosine and tyrosine concentrations were measured by HPLC with electrochemical detection (Matthews 1998). […]

mice, rats and chicks = details: fed to mice; cited from earlier work
chicks = details: 1% cyclocreatine in diet, newly hatched chicks, cited from earlier work
mice = details: up to 1% of diet for 2 weeks or over 4 weeks; cited from earlier work
[2] = cited from earlier work
[3] = 1% dietary cyclocreatine; cited from earlier work
creatine kinase = details: forward reaction, in vitro and in vivo; cited from earlier work
[4] = test system: patients with cardiac diseases; details: up to 8 grams/day, intravenous injection; cited from earlier work

Row | Compound | nitration of proteins (3-nitrotyrosine) induced by malonate [1] | levels of salicylate derivatives 2,3 DHBA and 2,5 DHBA after malonate ([1]; killed 1 hour later) | tolerability (mice, rats and chicks) | mortality (chicks; in the presence of antibiotics) | growth compared with control chicks (chicks) | gross adverse effects (mice) | accumulation in different organs ([2]; animals fed e.g. 1% dietary cyclocreatine, mM concentrations) | uptake by muscle, heart and brain ([2]; rats receiving dietary 1% cyclocreatine) | antiviral activity [3] | phosphorylation by creatine kinase (creatine kinase) | adverse side effects [4]
1 | NC1=NCCN1CC(=O)O [cyclocreatine, 1-carboxymethyl-2-iminoimidazolidine] | protective effects | protect against increases | well-tolerated | without significant mortality | grew more slowly | without gross adverse effects | accumulation of cyclocreatine in different organs in mM concentrations | taken up by muscle, heart and brain | observed | phosphorylated efficiently | –
2 | N-phosphoryl creatine [creatine phosphate] | – | – | – | – | – | – | – | – | – | – | no adverse side effects
